Data published in patent publication US20100098671A1, “COMPOSITION FOR PREVENTION OR TREATMENT OF BONE MARROW DAMAGE” (MODERN CELL & TISSUE TECHNOLOGIES INC., priority 2007, published 2010).
No end group written: not given here.

Tests used:
Format in all cases: in vivo, C57b1/6 mice
bone marrow cells = assay: Viable bone marrow cell count in gamma-irradiated mice
Source text: (§1) In order to ascertain protective and regenerative effects of Substance-P on bone marrow, 8-week-old C57b1/6 mice were purchased as experimental animals and divided into three groups, each consisting of 6 animals (n=6): two experimental groups (administration of a test drug before and after induction of bone marrow damage) and a control group. For this purpose, bone marrow damage was induced by radiation in animals.
(§2) For the group used to confirm bone marrow-protective effects of Substance-P, 0.1 nmol/g of Substance-P was injected into caudal vein of mice, 1 day prior to radiation. 24 hours later, animals were irradiated with a gamma irradiator at a dose of 4 Gy. 4 hours after irradiation, 0.1 nmol/g of Substance-P diluted in PBS was injected once more into caudal vein of mice. Substance-P was diluted in PBS prior to use thereof.
(§3) For the group used to confirm bone marrow-regenerative effects of Substance-P, 0.1 nmol/g of Substance-P was intravenously administered to caudal veins of mice immediately after animals were irradiated with gamma rays. 24 hours later, Substance-P was intravenously administered once more to animals.
(§4) Bone marrow cells were isolated from animals 3 and 7 days after irradiation. For this purpose, femurs were isolated from mice and defatted to obtain the femoral bones only. A medium was allowed to flow from one end of the bone to the other end thereof using a 26-gauge syringe. This procedure was repeated five times to ensure that bone marrow cells were completely extracted from the bone. The cells were pooled in a tube, and centrifuged at 1500 rpm for 5 min and washed two times with PBS. The viable cell count was performed and compared between the drug-administered groups (administration of Substance-P before and after irradiation) and the non-administered group.

[1] = test system: hematopoietic stem cell colony formation of bone marrow cells; assay: CFU assay of bone marrow cells from irradiated mice in HSC-CFU media
Source text: as §1, §2, §3, §4
When bone marrow cells and blood cells were prepared, the cells were inoculated onto 35 mm plates at a density of 3×10^3 bone marrow cells/plate and 5×10^6 blood cells/plate, respectively and cultured in hematopoietic stem cell-colony forming unit media (HSC-CFU media, available from Miltenyi). The cells were cultured without change of the culture medium for two weeks while a colony count was performed daily.

blood cells = assay: Viable blood cell count in gamma-irradiated mice; conditions: Substance-P administered before or after radiation-induced bone marrow damage
Source text: as §1, §2, §3
Blood cells were isolated from animals 3 and 7 days after irradiation treatment was complete. For this purpose, whole blood (WB) was isolated from abdominal vena cava using a 26-gauge syringe. […]

Question: For “Substance P (RPKPQQFFGLM; not fully specified; ends and bridges not checked; UniProt P20366 58-68, looked up) [Substance-P]”, which “viable bone marrow cell count vs non-administered group” value (bone marrow cells; Substance-P 0.1 nmol/g i.v. 1 day prior to and 4 h after 4 Gy irradiation, 3rd post-irradiation day) is on record?
Answer: no significant difference

Question: What about the “viable bone marrow cell count vs non-administered group” value (bone marrow cells; Substance-P 0.1 nmol/g i.v. 1 day prior to and 4 h after 4 Gy irradiation, after 7 days) of the same substance?
Answer: about two-fold higher

Question: And the “viable bone marrow cell count vs non-administered group” value (bone marrow cells; Substance-P 0.1 nmol/g i.v. immediately after irradiation and 24 h later, 3rd post-irradiation day)?
Answer: no significant difference

Question: And the “viable bone marrow cell count vs non-administered group” value (bone marrow cells; Substance-P 0.1 nmol/g i.v. immediately after irradiation and 24 h later, after 7 days)?
Answer: about 2.5 fold

Question: And the “day from which colony formation was observable” value ([1]; Substance-P after irradiation)?
Answer: 5 post-irradiation day

Question: And the “colony count vs non-administered group” value ([1]; Substance-P after irradiation, 2-week culture, 14th post-irradiation day)?
Answer: about 3 fold

Question: What about the colony formation ([1]; Substance-P after irradiation, 3rd post-irradiation day) of the same substance?
Answer: no colony formation

Question: What about the colony count ([1]; Substance-P after irradiation, 7th post-irradiation day) of the same substance?
Answer: significantly increased

Question: What about the “colony count vs non-administered group” value ([1]; Substance-P prior to irradiation, 2-week culture, 14th post-irradiation day) of the same substance?
Answer: about 9 fold

Question: And the “colony count vs non-administered group” value ([1]; Substance-P prior to irradiation, 3rd post-irradiation day)?
Answer: higher colony counts

Question: And the “colony count vs non-administered group” value ([1]; Substance-P prior to irradiation, 7th post-irradiation day)?
Answer: higher colony counts

Question: What about the “colony count vs non-administered group” value ([1]; Substance-P prior to irradiation, immediately after irradiation) of the same substance?
Answer: higher colony counts

Question: And the “number of blood cells vs non-administered group” value (blood cells)?
Answer: significantly higher
